{"source": "patent US6740680B1", "about": "“Pharmaceutical compositions to tetrac and methods of use thereof” (Becton Pharma, Inc., priority 1999, dated 2004)", "key": {"TSH": {"tested_on": "TSH", "experiment": "Serum TSH in hypothyroid rats infused with Tetrac or T4", "format": "in vivo, rat", "settings": "for Serum TSH: hypothyroid rats, mean ± SEM", "protocol": "Seventy-nine male SIVZ rats were purchased from the breeder (Institut für Labortierkunde des Universität Zürich, Zürich, Switzerland). […] The infusion lasted 13 days. […] An euthyroid control group was included. The animals were weighed every 2 days. Rats were sacrificed by decapitation and blood was collected and stored at […] until use. Tissues (liver, heart, brown adipose tissue, cerebral cortex and pituitary) were removed rapidly, frozen in liquid nitrogen and stored at […] until use.\nHornone assays. […] Endocrinol. […] Serum TSH measurements were performed with reagents kindly provided by the National Pituitary Program, NIAMDD, NIH (Bethesda, USA)."}, "[1]": {"experiment": "Serum T3, T4, Triac and Tetrac levels in infused rats", "format": "in vivo", "settings": "male, SIVZ, rat, intraperitoneal, mean ± SEM, read-out: Serum Tetrac", "protocol": "(§1) Seventy-nine male SIVZ rats were purchased from the breeder (Institut für Labortierkunde des Universität Zürich, Zürich, Switzerland). They were rendered hypothyroid by a single injection of [^131I]Na (100 μCi/rat) and before and throughout the experiment 0.02% 2-mercapto-1-methylimidazol (MMI) was added to drinking water. In order to have an euthyroid control group of similar weight and identical age, 10 rats received only MMI in the drinking water and 2 weeks before implanting the minipumps, MMI was withdrawn. Osmotic minipumps (secretion rate 0.25 μl/hour, duration 14 days) were implanted intraperitoneally (i.p.) 2 months after the injection of [^131I]Na. The minipumps were filled with T4 or Tetrac dissolved in 0.05 N NaOH, 2% BSA and 100,000 cpm [^125I]T4 or [^125I]Tetrac as control of their secretion rates. The infusion lasted 13 days. 0, 1.5, 4.5, 13.5 and 40.5 nmol Tetrac/day/100 g or 0.5, 1.5, 4.5 and 13.5 nmol T4/day/100 g bodyweight (BW) (n=4/dose) were infused. An euthyroid control group was included. The animals were weighed every 2 days. Rats were sacrificed by decapitation and blood was collected and stored at […] until use. Tissues (liver, heart, brown adipose tissue, cerebral cortex and pituitary) were removed rapidly, frozen in liquid nitrogen and stored at […] until use.\nHornone assays. Total serum T4, T3, Tetrac, Triac and TSH levels (intra-assay coefficient of variation 7 to 10%, inter-assay coefficient of variation 12 to 15%) were measured using the method of Burger, A., Sakoloff, C., Staeheli, V., Vallotton, M. D., and Ingbar, S. H. Acta. Endocrinol. (Copenh.) 80: 58-69 (1975). Serum TSH measurements were performed with reagents kindly provided by the National Pituitary Program, NIAMDD, NIH (Bethesda, USA). The detection limits were 0.80 ng TSH/ml; 9.5 pmol T4/ml; 0.16 pmol T3/ml; 10 pmol Tetrac/ml and 0.52 pmol Triac/ml."}, "Monodeiodinase type 2": {"tested_on": "Monodeiodinase type 2", "experiment": "Monodeiodinase type 2 activity in brain cortex and brown adipose tissue of infused rats", "format": "in vivo, rat", "settings": "infused rats, remaining activity, adjusted group mean at the mean Ln (TSH) concentration", "protocol": "as §1\nMonodeiodinase type 1 and 2 activities. Monodeiodinase type 1 and type 2 activities were determined in tissue homogenates by measuring the release of radioiodide from [^125I]rT3 according to the method of Leonard and Rosenberg (Leonard, J. L. et al. Endocrinology (1980) 106: 444-451).\nMonodeiodinase type 1 activity was measured in liver homogenates using 1 μM rT3 and 1 mM DTT with 10 min of incubation, whereas for heart, 0.01 μM rT3 and 10 mM DTT with 1 hour of incubation. Monodeiodinase type 2 activity was measured in brown adipose tissue (BAT) and cerebral cortex using 1 nM rT3, 10 mM DTT and 1 mM propylthiouracil (PTU) with 1 hour of incubation. Protein concentrations were measured by the method of Bradford (Bio-Rad Laboratories GmbH, Munich, Germany) with bovine gammaglobulin as the protein standard. In order to study the effect of circulating Tetrac on the enzyme activities, 2 rats were injected intraperitoneally with 10 μCi ^125I Tetrac and killed 6 hours later. The tissue homogenates were extracted with 3 volumes of ethanol-NH3 (97:3). After 10 minutes centrifugation at 15,000 g, the supernatant was vacuum dried and applied to TLC (Merck 254, Toluol, acetic acid, water: 2:2:1). In order to calculate the tissue concentrations, the highest serum Tetrac levels were used (406 pmol/ml). The calculated tissue concentrations were: liver: 1.9, heart: 2.29 and brain cortex: 0.47 fluol Tetrac/μg protein."}, "Cynomologus monkeys": {"tested_on": "Cynomologus monkeys", "protocol": "Preparation of Tetrac for injection. Tetrac from Rhône-Poulenc and Henning Laboratory were compared. Tetrac powder was dissolved in sterile 0.1 N NaOH at 2 mg/ml. This solution was made before the beginning of each treatment period and stored at 4° C. in polypropylene tubes, protected from light. Each solution for injection was prepared daily after dilution in the vehicle (0.9% NaCl) containing 5% monkey serum (v/v), and was stored at room temperature and protected from light, according to the storage conditions of the test substance.\nAnimals. One male and one female purpose bred Cynomologus monkeys Macaca fascicularis were supplied by Centre de Recherches Primatologiques, Port Louis, Mauritius. […] The animals were individually housed in stainless steel cages and a metallic tray was placed under each cage in order to collect urine. The animals were fed daily with approximately 200 grams each of U.A.R. 107 C pelleted diet (batch Nos. 61106, 61207 and 70317, U.A.R., Villemoisson-sur-Orge, France), distributed about 2 hours after treatment with Tetrac. No contaminants were known to have been present in the diet, drinking water or bedding material at levels which may be expected to have interfered with or prejudiced the outcome of the study.\nWeeks 1 to 3 and weeks 7 to 9: the animals received the test substance TETRAC provided either by Rhone-Poulenc or by Henning Laboratories over a three-week period.\nWeeks 4 to 6 and weeks 10 to 12: a washout period of three weeks was observed.\nAdministration of Tetrac. Tetrac was administered via intramuscular injection into the thigh muscle once a day, at approximately the same time each day, several days a week over a three week period. The quantity of tetrac administered to each animal was adjusted according to the most recently recorded body weight. A constant dosage-volume of 0.5 ml/kg was used.\nMorbidity and mortality. The animals were checked at least twice a day, for mortality and signs of morbidity.\nBody weight. Body weight was recorded for each animal once before the beginning of the treatment period, on the first day of the treatment period, and at least once a week until the end of the study.\nFood consumption. Food consumption was estimated for each animal by calculating the difference between the quantity given and that remaining the next morning. This was estimated daily during the week before treatment and throughout the study. Food consumption was expressed as a percentage of the quantity given. Whenever fasting was required, the food was removed at the end of the day and the estimation of consumption was made at that time, food being made available for approximately five hours on that day."}}, "note": "Read-outs that look alike come from different tables or passages of the source.", "data": [{"smiles": "O=C(O)Cc1cc(I)c(Oc2cc(I)c(O)c(I)c2)c(I)c1", "note": "[Tetrac, 3,3′,5,5′-tetraiodothyroacetic acid]", "values": [{"measurement": "Serum TSH", "setting": "TSH; infusion 1.5 nmol/day/100 g BW", "value": "90.3 ± 8.6", "unit": "ng/mL"}, {"measurement": "Serum TSH", "setting": "TSH; infusion 4.5 nmol/day/100 g BW", "value": "4.6 ± 0.5", "unit": "ng/mL"}, {"measurement": "Serum TSH", "setting": "TSH; infusion 13.5 nmol/day/100 g BW", "value": "1.2 ± 0.3", "unit": "ng/mL"}, {"measurement": "Serum TSH", "setting": "TSH; infusion 40.5 nmol/day/100 g BW", "value": "<0.8", "unit": "ng/mL"}, {"measurement": "Serum TSH concentration, mean of treatment group", "setting": "TSH; mean over all dose levels of the treated rats, p=<0.04", "value": 24, "unit": "ng/mL"}, {"measurement": "concentration at 13 days", "setting": "[1]; Tetrac infusion 1.5 nmol/day/100 g BW", "value": "168 ± 16", "unit": "nM"}, {"measurement": "concentration at 13 days", "setting": "[1]; Tetrac infusion 4.5 nmol/day/100 g BW", "value": "332 ± 19", "unit": "nM"}, {"measurement": "concentration at 13 days", "setting": "[1]; Tetrac infusion 13.5 nmol/day/100 g BW", "value": "458 ± 27", "unit": "nM"}, {"measurement": "concentration at 13 days", "setting": "[1]; Tetrac infusion 40.5 nmol/day/100 g BW", "value": "406 ± 57", "unit": "nM"}, {"measurement": "Residual monodeiodinase type 2 activity, adjusted mean", "setting": "Monodeiodinase type 2; BAT", "value": 28}, {"measurement": "Residual monodeiodinase type 2 activity, adjusted mean", "setting": "Monodeiodinase type 2; Brain Cortex", "value": 27.7}, {"measurement": "Clinical signs", "setting": "Cynomologus monkeys; 75 μg/kg/day intramuscular, treatment or washout periods", "value": "No clinical signs were observed"}, {"measurement": "Body weight gain (in words)", "setting": "Cynomologus monkeys; Female, two treatment periods compared to washout periods", "value": "slightly higher body weight gain"}, {"measurement": "Food consumption (in words)", "setting": "Cynomologus monkeys; Male", "value": "unaffected"}]}]}
